Our source for the IC50 values is patent US20110105509A1 (Wyeth, LLC, priority 2009, published 2011).

pIC50: −log10 of the molar value. Where only a bound is given, the exact number is not on record here.

The target in this assay is T1, CRTH2 (Homo sapiens, UniProt Q9Y5Y4).
T1 construct: expressed in transfected cells; host or cells: CHO cells
T1 sequence (Q9Y5Y4 1-395): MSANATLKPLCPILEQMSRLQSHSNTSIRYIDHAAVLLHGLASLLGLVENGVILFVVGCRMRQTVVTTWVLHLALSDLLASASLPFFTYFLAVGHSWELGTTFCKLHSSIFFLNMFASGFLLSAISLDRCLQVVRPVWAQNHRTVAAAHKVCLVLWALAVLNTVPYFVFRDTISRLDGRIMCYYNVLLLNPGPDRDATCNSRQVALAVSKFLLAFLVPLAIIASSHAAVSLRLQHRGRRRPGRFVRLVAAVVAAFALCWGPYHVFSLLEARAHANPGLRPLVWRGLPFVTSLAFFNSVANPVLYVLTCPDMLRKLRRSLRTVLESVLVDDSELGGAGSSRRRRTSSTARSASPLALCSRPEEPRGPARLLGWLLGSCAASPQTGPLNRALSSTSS
Description: FRET based competitive immunoassay (cAMP) in CRTH2 expressing CHO cells. As to conditions: CRTH2 expressing CHO cells incubated with forskolin and PGD2; Eu3+ cryptate-labeled anti-cAMP and d2-labeled cAMP. Type of assay: cell-based. As for the experimental part: FRET Assay: To evaluate potency compounds were tested in a FRET based competitive immunoassay in which CRTH2 expressing CHO cells were incubated in the presence of forskolin and PGD2 along with Eu3+ cryptate-labeled anti-cAMP and d2-labeled cAMP.
With `Cc1c(-c2nn(Cc3ccc(C(F)(F)F)cc3)c(=O)c3ccccc23)c2cc(Cl)ccc2n1CC(=O)O` [Example 198, 2-(5-Chloro-2-methyl-3-(4-oxo-3-(4-(trifluoromethyl)benzyl)-3,4-dihydrophthalazin-1-yl)-1H-indol-1-yl)acetic acid], the pIC50 was 7.34.
For the molecule `Cc1c(Cc2ccc(=O)n(Cc3cc(F)cc(F)c3)c2)c2cc(F)ccc2n1CC(=O)O` [Example 36, 2-(3-((1-(3,5-Difluorobenzyl)-6-oxo-1,6-dihydropyridin-3-yl)methyl)-5-fluoro-2-methyl-1H-indol-1-yl)acetic acid], the pIC50 is 8.70.
Under `Cc1c(-c2ccc(=O)n(Cc3cc(F)ccc3F)n2)c2cc(F)ccc2n1CC(=O)O` [Example 72, 2-(3-(1-(2,5-Difluorobenzyl)-6-oxo-1,6-dihydropyridazin-3-yl)-5-fluoro-2-methyl-1H-indol-1-yl)acetic acid] stands 7.37; under `Cc1c(-c2nn(Cc3ccccc3)c(=O)c3ccccc23)c2cc(S(C)(=O)=O)cc(Cl)c2n1CC(=O)O` [Example 14, 2-(3-(3-Benzyl-4-oxo-3,4-dihydrophthalazin-1-yl)-7-chloro-2-methyl-5-(methylsulfonyl)-1H-indol-1-yl)acetic acid], 6.77.
With `Cc1c(-c2ccc(=O)n(C(C)C)c2)c2ccccc2n1CC(=O)O` [Example 276, 2-(3-(1-isopropyl-6-oxo-1,6-dihydropyridin-3-yl)-2-methyl-1H-indol-1-yl)-acetic acid] the figure was 6.24; with `Cc1c(Cc2ccc(=O)n(C(C)C)c2)c2ccccc2n1CC(=O)O` [Example 22], 6.12.
Under `Cc1c(Cc2ccc(=O)n(Cc3ccccc3)c2)c2cc(F)ccc2n1CC(=O)O` [Example 346, {3-[(1-benzyl-6-oxo-1,6-dihydropyridin-3-yl)methyl]-5-fluoro-2-methyl-1H-indol-1-yl}acetic acid] stands 7.96; under `Cc1c(Cc2ccc(=O)n(Cc3cccc(F)c3)c2)c2cc(Cl)ccc2n1CC(=O)O` [Example 45, 2-(5-Chloro-3-((1-(3-fluorobenzyl)-6-oxo-1,6-dihydropyridin-3-yl)methyl)-2-methyl-1H-indol-1-yl)acetic acid], 8.30; under `Cc1c(Cc2ccc(=O)n(CC(F)(F)F)n2)c2cc(F)ccc2n1CC(=O)O` [Example 345, (5-fluoro-2-methyl-3-{[6-oxo-1-(2,2,2-trifluoroethyl)-1,6-dihydropyridazin-3-yl]-methyl}-1H-indol-1-yl)acetic acid], 7.51.
`Cc1c(-c2ccc(=O)n(CCOc3ccc(Cl)cc3)n2)c2cc(F)ccc2n1CC(=O)O` [Example 152, 2-(3-(1-(2-(4-chlorophenoxy)ethyl)-6-oxo-1,6-dihydropyridazin-3-yl)-5-fluoro-2-methyl-1H-indol-1-yl)acetic acid] had a pIC50 of 7.92.
In the case of `Cc1c(-c2ccc(=O)n(Cc3ccccc3)c2)c2cc(F)ccc2n1CC(=O)NS(=O)(=O)c1ccccc1` [Example 312, 2-(3-(1-benzyl-6-oxo-1,6-dihydropyridin-3-yl)-5-fluoro-2-methyl-1H-indol-1-yl)-N-(phenylsulfonyl)acetamide], the pIC50 was less than 6.00.
Under `Cc1c(-c2nn(CCc3ccc(F)cc3)c(=O)c3ccccc23)c2cc(F)ccc2n1CC(=O)O` [Example 227, 2-(5-fluoro-3-(3-(4-fluorophenethyl)-4-oxo-3,4-dihydrophthalazin-1-yl)-2-methyl-1H-indol-1-yl)acetic acid] stands 8.52; under `Cc1c(Cc2ccc(=O)n(Cc3ccccc3)n2)c2cc(F)ccc2n1CC(=O)O` [Example 337, {3-[(1-benzyl-6-oxo-1,6-dihydropyridazin-3-yl)methyl]-5-fluoro-2-methyl-1H-indol-1-yl}acetic acid], 8.00.
On to `Cc1c(-c2ccc(=O)n(Cc3ccc(F)cc3)c2)c2ccccc2n1CC(=O)O` [Example 283, 2-(3-(1-(4-fluorobenzyl)-6-oxo-1,6-dihydropyridin-3-yl)-2-methyl-1H-indol-1-yl)acetic acid], for which the pIC50 is 7.80.
`Cc1c(-c2nn(Cc3ccccc3)c(=O)c3ccccc23)c2cc(Cl)cc(F)c2n1CC(=O)O` [Example 11, 2-(3-(3-Benzyl-4-oxo-3,4-dihydrophthalazin-1-yl)-5-chloro-7-fluoro-2-methyl-1H-indol-1-yl)acetic acid] gave a pIC50 of 7.41.
With `Cc1c(Cc2cn(Cc3ccccc3)c(=O)c3ccccc23)c2cc(F)ccc2n1CC(=O)O` [Example 85, 2-(3-((2-benzyl-1-oxo-1,2-dihydroisoquinolin-4-yl)methyl)-5-fluoro-2-methyl-1H-indol-1-yl)acetic acid] the figure was 7.21; with `Cc1c(-c2cn(Cc3ccccc3)c(=O)c3ccccc23)c2cc(F)ccc2n1CC(=O)O` [Example 248, 2-(3-(2-benzyl-1-oxo-1,2-dihydroisoquinolin-4-yl)-5-fluoro-2-methyl-1H-indol-1-yl)acetic acid], 7.82; with `Cc1c(Cc2ccc(=O)n(Cc3cccc(F)c3)c2)c2ccccc2n1CC(=O)O` [Example 34, 2-(3-((1-(3-Fluorobenzyl)-6-oxo-1,6-dihydropyridin-3-yl)methyl)-2-methyl-1H-indol-1-yl)acetic acid], 7.27.
For `Cc1c(-c2ccc(=O)n(CC(F)(F)F)c2)c2cc(F)ccc2n1CC(=O)O` [Example 280, 2-(5-Fluoro-2-methyl-3-(6-oxo-1-(2,2,2-trifluoroethyl)-1,6-dihydropyridin-3-yl)-1H-indol-1-yl)acetic acid], the pIC50 was 6.93.
Take `Cc1c(-c2nn(Cc3cccc(C(F)(F)F)c3)c(=O)c3ccccc23)c2cc(Cl)ccc2n1CC(=O)O` [Example 200, 2-(5-Chloro-2-methyl-3-(4-oxo-3-(3-(trifluoromethyl)benzyl)-3,4-dihydro-phthalazin-1-yl)-1H-indol-1-yl)acetic acid]: the pIC50 is 7.35.
Turning to `Cc1c(Cc2ccc(=O)n(Cc3ccc(F)c(F)c3)c2)c2cc(F)ccc2n1CC(=O)NS(C)(=O)=O` [Example 321, 2-(3-((1-(3,4-difluorobenzyl)-6-oxo-1,6-dihydropyridin-3-yl)methyl)-5-fluoro-2-methyl-1H-indol-1-yl)-N-(methylsulfonyl)acetamide], the pIC50 is less than 6.00.
As to `Cc1c(-c2nn(CC(N)=O)c(=O)c3ccccc23)c2cc(Cl)ccc2n1CC(=O)O` [Example 259c, 2-(3-(3-(2-amino-2-oxoethyl)-4-oxo-3,4-dihydrophthalazin-1-yl)-5-chloro-2-methyl-1H-indol-1-yl)acetic acid], the pIC50 was 7.64.
For `Cc1c(-c2nn(Cc3ccc(OC(F)(F)F)cc3)c(=O)c3ccccc23)c2cc(Cl)ccc2n1CC(=O)O` [Example 102, 2-(5-chloro-2-methyl-3-(4-oxo-3-(4-(trifluoromethoxy)benzyl)-3,4-dihydrophthalazin-1-yl)-1H-indol-1-yl)acetic acid], the pIC50 was 7.57.
With `Cc1c(-c2nn(Cc3cc(F)c(F)cc3F)c(=O)c3ccccc23)c2cc(Cl)ccc2n1CC(=O)O` [Example 60, 2-(5-chloro-2-methyl-3-(4-oxo-3-(2,4,5-trifluorobenzyl)-3,4-dihydro-phthalazin-1-yl)-1H-indol-1-yl)acetic acid] the figure was 7.96.

A word on the pIC50: it is the IC50 on a negative log10 scale, so that one unit is a factor of ten. A higher pIC50 goes with a small IC50.
